Reference: patent publication US20040043939A1, “Peptide-based gemini compounds” (SmithKline Beecham p.l.c., priority 1997, published 2004)
Numbered stars: 1 amine (or outer) side, 2 acyl side, 3 side chain; on linkers, the order of the positions; unused ones are H or OH. Bridge positions count the residues as written; N and C are the ends. Peptide text beside a SMILES is read from it. I, II: the chains in the order shown. * marks the point of attachment. NH(CH2)11CH3 = CCCCCCCCCCCCN*; CH2CH2 = C(C[*:2])[*:1]

Key:
Type in all cases: cell-based
[1] = test system: CHO-K1 cells; assay: Transfection of luciferase plasmid into CHO-K1 cells with gemini compounds in combination with supplements (DOPE, PLUS)
Method: The transfection ability of the gemini compounds could be further enhanced by the addition of a neutral carrier, for example, dioleyl phosphatidylethanolamine (DOPE) (Farhood, H., et al (1985) Biochim. Biophys. Acta 1235 289) or a complexing reagent, for example, PLUS compound (Life Technologies Inc.). […] Transfection mediated by compound 55 with DOPE in a 2:1 ratio and the addition of 11.6 ul of PLUS compound lead to a mean count of 6.5×10^5 cps representing a 12-fold increase of luciferase activity in comparison to compound 55 alone. Incubation of the PLUS compound with the DNA and combination with compound 55 alone also lead to a 4-fold increase.

[2] = test system: HEK293 cells; assay: Transfection of luciferase plasmid into HEK293 cells, luciferase activity assay; conditions: for Efficiency in facilitating transfection of the luciferase plasmid: at concentrations above 150 ug/ml; for Luciferase activity, mean count at most effective (peak) concentration: luciferase control plasmid 6 ug, mean of 4 independent counts; for Concentration of peak transfection efficiency (most effective concentration): luciferase plasmid
Method: All tissue culture reagents were obtained from Life Technologies Inc. HEK 293 cells were seeded at 2-3×10^5 cells per well in Nunc six-well culture plates, 24 hours prior to transfection. The cells were seeded in 2 mls Dulbeccos Modified Eagle medium containing Earles salts and supplemented with 10% v/v foetal bovine serum (=complete medium). The cells were grown at 37° C. in 5% CO2 in a humidified atmosphere. 6 ug DNA (“luciferase control plasmid” from Promega Corp.) were dissolved in 100 ul serum free medium (OPTI-MEMO). The peptide-based gemini compounds were made up at 1 mg/ml in tissue culture grade water and then diluted in OPTI-MEM® to the appropriate concentration to a final volume of 100 ul. The DNA and gemini solutions were mixed (to a total volume of 200 ul; final concentrations of 5, 25, 50, 100, 150, 200, 250 and 300 ug/ml) and left at room temperature for 15 minutes. The DNA/gemini mix was placed onto the cells in each well and left in contact for 18-20 hours. The cells were then washed twice with phophate buffered saline prior to 1 ml of fresh complete medium being added. Cells were incubated for a further 24 hours prior to lysis and luciferase activity assayed.
All luciferase activity assays were performed using the Canberra Packard (Berkshire, UK) Luclite kit according to the manufacturer's instructions with the exception that the cells in each well were resuspended in 1 ml lysis buffer and 100 ul aliquots mixed with 100 ul of the luciferase substrate. The reaction mix was left for a 15 minutes adaptation period in the dark before counting for 5 minutes in a Top Count scintillation counter. Luciferase activity is measured as counts per second (CPS) from the scintillation counter. Four independent counts were taken per well.
Control transfections were set up with no DNA, CaPO4, an anionic gemini compound (1) and the commercially available lipofection reagents LipofectAmine™ and Lipotaxi™ at the manufacturers recommended concentrations (10, 25, 50, 75, 125 ug/ml and 175, 250, 325, 400 and 500 ug/ml respectively).

[3] = test system: CHO-K1 cells; assay: Transfection of luciferase plasmid into CHO-K1 cells, luciferase reporter gene assay; conditions: for Luciferase activity, mean count at most effective (peak) concentration: 5 ug luciferase plasmid, about 48 h post transfection; for Concentration of peak transfection efficiency (most effective concentration): luciferase plasmid
Method: CHO-K1 cells (ATCC: CRL-9618) were seeded into T25-culture flasks (Corning-Costar Buckinghamshire, UK), at 7×10^5 cells per flask, 24 hours prior to transfection. The CHO-K1 cells were seeded in 5 ml MEM alpha medium with ribonucleosides and deoxyribonucleosides and supplemented with 1× L-glutamine and 10% v/v foetal bovine serum (complete medium). The cells were grown at 37° C. in 5% CO2 in a humidified atmosphere.
For transfection, 5 ug DNA (luciferase control plasmid) was incubated with the gemini compounds in water (final volume 400 μl). The peptide-based gemini compounds were made up at 1 mg ml^−1 in tissue culture grade water and then diluted to the appropriate concentration to a total volume of 200 ul. Following a 30 minute room temperature incubation, 2.6 ml OPTI-MEM® medium was added and the solution placed on the cells. Following an overnight incubation at 37° C., the transfection solution was replaced with complete medium and the cells incubated at 37° C. 24 hours post transfection the cells were detached from the flask and seeded into 96-well plates at a density of 0.5×10^5 cells per well and incubated for a further 24 hours at 37° C. Luciferase reporter gene assays were performed according to the manufacturers instructions (Roche Diagnostics, Mannheim, Germany) approximately 48 hours post transfection. The plates were left for a 15 minutes adaption period in the dark before counting for 60 seconds in a TopCount NXT counter (Canberra Packard). An average of eight wells were counted per transfection.
Control transfections were set up with no DNA, an anionic gemini compound and the commercially available reagent LipofectAmine PLUS™.

[4] = compound 55 with DOPE 2:1 plus 11.6 ul PLUS compound

Compound | Increase of luciferase activity ([1]; PLUS compound incubated with the DNA, combined with compound 55 alone (no DOPE)) | Increase of luciferase activity ([1]; compound 55 and DOPE at 2:1 ratio) | Increase of luciferase activity in comparison to compound 55 alone [1, 4] | Luciferase activity, mean count [1, 4] | Efficiency in facilitating transfection of the luciferase plasmid [2] | Luciferase activity, mean count at most effective (peak) concentration [2] | Concentration of peak transfection efficiency (most effective concentration) [2] | Efficiency in facilitating transfection of the luciferase plasmid [3] | Luciferase activity, mean count at most effective (peak) concentration [3] | Concentration of peak transfection efficiency (most effective concentration) [3] | Luciferase activity count, control transfection ([2]; CaPO4 transfection)
CCCCCCCCCCCCCNC(=O)C(CO)NC(=O)C(CSCCSCC(NC(=O)C(N)CCCCNC(=O)C(N)CCCCN)C(=O)NC(CO)C(=O)NCCCCCCCCCCCC)NC(=O)C(N)CCCCNC(=O)C(N)CCCCN.Cl.Cl.Cl.Cl (centres unmarked) [Compound 55] | 4 fold | 9 fold | 12 fold | 6.5×10^5 cps | very efficient agents | about 45,000 cps | 300 µg/mL | very efficient agents | about 2.4×10^5 cps | 30 µM | 
CCCCCCCCCCCCNC(=O)C(CO)NC(=O)C(CSCCSCC(NC(=O)C(CCCCNC(=O)C(N)CCCCN)NC(=O)C(N)CCCCN)C(=O)NC(CO)C(=O)NCCCCCCCCCCCC)NC(=O)C(CCCCNC(=O)C(N)CCCCN)NC(=O)C(N)CCCCN.Cl.Cl.Cl.Cl.Cl.Cl.Cl.Cl (centres unmarked) [Compound 56] (I: H-KK(Lys)CS-{NH(CH2)11CH3} / II: H-KK(Lys)CS-{NH(CH2)11CH3}; linker I:3-II:3 via CH2CH2; configuration not given here) |  |  |  |  | very efficient agents | about 50,000 cps | 200 µg/mL | very efficient agents | about 1.9×10^5 cps | 40 µM | 
CaPO4 [reference compound] |  |  |  |  |  |  |  |  |  |  | about 2,000 cps
